Test results from ChEMBL document CHEMBL3714762, “Agents and methods for treating ischemic and other diseases” (2012).
In brackets after ≈: the same amount, converted by molar mass.

Tests used:
[1] = Stability in rat microsomes assessed half life; format: ADME, Microsome
[2] = Antiproliferative activity against human WERI cells assessed as inhibition of cell proliferation by propidium iodide uptake based fluoroskan microplate reader analysis; format: functional
[3] = Antiproliferative activity against human WERI cells assessed as inhibition of cell proliferation by measuring normalized ratio of propidium iodide uptake at 10 uM by propidium iodide uptake based fluoroskan microplate reader analysis; format: functional
[4] = Antiproliferative activity against human WERI cells assessed as inhibition of cell proliferation by measuring normalized ratio of propidium iodide uptake at 5 uM by propidium iodide uptake based fluoroskan microplate reader analysis; format: functional
[5] = Solubility in aqueous solution; format: physicochemical
Y79 = experiment: Antiproliferative activity against human Y79 cells assessed as inhibition of cell proliferation at 10 uM incubated for 72 hrs by Cell-titer-Glo cell viability assay; format: functional; details: Y79, 72 h
[6] = Antiproliferative activity against human WI38 cells assessed as inhibition of cell proliferation at 10 uM incubated for 72 hrs by Cell-titer-Glo cell viability assay; format: cell-based, WI-38
MCF7 = experiment: Antiproliferative activity against human MCF7 cells assessed as inhibition of cell proliferation at 10 uM incubated for 72 hrs by Cell-titer-Glo cell viability assay; format: functional; details: MCF7, 72 h
[7] = Antiproliferative activity against human MCF10A cells assessed as inhibition of cell proliferation at 10 uM incubated for 72 hrs by Cell-titer-Glo cell viability assay; format: cell-based, MCF-10A
[8] = Antiproliferative activity against mouse B16F10 cells assessed as inhibition of cell proliferation at 10 uM incubated for 72 hrs by Cell-titer-Glo cell viability assay; format: functional; details: B16-F10, 72 h
HeLa = experiment: Antiproliferative activity against human HeLa cells assessed as inhibition of cell proliferation at 10 uM incubated for 72 hrs by Cell-titer-Glo cell viability assay; format: functional
[9] = Antiproliferative activity against human DMS53 cells assessed as inhibition of cell proliferation at 10 uM incubated for 72 hrs by Cell-titer-Glo cell viability assay; format: functional; details: DMS-53, 72 h

Row | SMILES | IC50 [2] [nM] | Ratio [3] | Ratio [4] | further results
1 | COc1cc(OC)c2c(C)c(Cc3ccccc3)c(=O)[nH]c2c1 | – | – | – | half-life [1]: > 30 min
2 | COc1ccc2c(c1)CCCN2C(=O)c1sc2ccccc2c1Cl | 5660 | 0.276 | 0.695 | –
3 | COc1cc(OC)c2c(C)c(Cc3cccc(Cl)c3)c(=O)oc2c1 | 770 | 0.19 | 0.088 | –
4 | Cc1c(Cc2c(F)cccc2Cl)c(=O)oc2cc(O)cc(O)c12 | – | 0.102 | 0.721 | half-life [1]: 5 min
5 | CN(Cc1ccccc1N1CCCC1)C(=O)c1sc2ccccc2c1Cl | 3440 | 0.043 | 0.234 | –
6 | Cc1c(Cc2cccc(Cl)c2)c(=O)oc2cc(O)ccc12 | 5590 | 0.041 | 0.41 | –
7 | COc1cc2c(cc1OC)C(c1sc3cccc(OC)c3c1Cl)NCC2 (centres undefined) | 320 | 0.012 | 0.008 | –
8 | COc1cc2c(cc1OC)C(c1sc3ccccc3c1Cl)=NCC2 | 50 | 0 | 0.011 | solubility [5]: 100 µM (≈ 35.8 µg/mL)
9 | CCCc1c(Cc2cccc(Cl)c2)c(=O)[nH]c2cc(OC)cc(OC)c12 | 960 | 0.037 | 0.072 | –
10 | COc1ccc2c(c1)CCNC2c1sc2ccccc2c1Cl (centres undefined) | 1000 | 0.003 | 0.016 | –
11 | Cc1ccc2c(c1)CCCN2C(=O)c1sc2cccc(C)c2c1Cl | 2020 | 0.4 | 0.235 | –
12 | COc1cccc2c1CCN=C2c1sc2cccc(C)c2c1Cl | 360 | 0.13 | 0.042 | inhibition at 10 µM (Y79): > 40%; inhibition at 72 h, 10 µM [6]: > 40%; inhibition at 10 µM (MCF7): > 40%; inhibition at 72 h, 10 µM [7]: > 40%; inhibition at 10 µM [8]: > 40%; inhibition at 10 µM (HeLa): > 40%; inhibition at 10 µM [9]: > 40%
13 | COc1ccc(C)c(N(Cc2cccnc2)C(=O)c2sc3ccccc3c2Cl)c1 | 2370 | 0.1 | 0.08 | inhibition at 10 µM (HeLa): > 40%
14 | COc1ccc(C)c(N(Cc2ccncc2)C(=O)c2sc3ccccc3c2Cl)c1 | 5730 | 0.228 | 0.573 | inhibition at 10 µM (HeLa): > 40%
15 | COc1cc2c(cc1OC)C(c1sc3cccc(F)c3c1Cl)NCC2 (centres undefined) | 490 | 0 | 0.009 | –
16 | O=C(c1sc2ccccc2c1Cl)N1CCCc2cc(Cl)ccc21 | 3690 | 0.049 | 0.267 | –
17 | Cc1ccc2c(c1)CCN=C2c1sc2ccccc2c1Cl | 1830 | 0.003 | 0.011 | inhibition at 10 µM (Y79): > 40%; inhibition at 72 h, 10 µM [7]: > 40%; inhibition at 10 µM [8]: > 40%; inhibition at 10 µM (HeLa): > 40%
18 | Cc1ccc2c(c1)CCCN2C(=O)c1sc2ccc(F)cc2c1Cl | 4520 | 0.064 | 0.321 | –
19 | Cc1ccc(N(Cc2cccc(C)n2)C(=O)c2sc3ccccc3c2Cl)c(C)c1 | 840 | 0.1 | 0 | inhibition at 10 µM (Y79): > 40%; inhibition at 10 µM [8]: > 40%; inhibition at 10 µM (HeLa): > 40%
20 | COc1ccc2c(Cl)c(C3NCCc4cc(OC)c(OC)cc43)sc2c1 (centres undefined) | – | – | – | half-life [1]: > 30 min; solubility [5]: 100 µM (≈ 39 µg/mL)
